Experimental data reported in patent US20250354115A1, “METHOD FOR PRODUCING STEM CELLS AND METHOD FOR PRODUCING GAMMA DELTA T CELLS” (I Peace, Inc., priority 2022, published 2025).

Experiments:
[1] = tested on: Human peripheral blood mononuclear cells; assay: iPS cell induction from mononuclear cells in PTA-containing medium (Example 1); assay type: cell-based; settings: IL-2 added daily
Experimental: A PTA-containing medium according to Example 1 was prepared using RPMI 1640 medium (Gibco) containing […] of tetrakis-pivaloyloxymethyl-2-(thiazol-2-ylamino) ethylidene-1, 1-bisphosphonate (PTA, Techno Suzuta), 10% fetal bovine serum (Life Technologies), 1.0×10^−5 mol/L 2-mercaptoethanol (Nacalai Tesque), 100 U/mL penicillin, and 100 μg/mL streptomycin (Life Technologies).
Human peripheral blood mononuclear cells were added to the PTA-containing medium according to Example 1, and a medium containing approximately 1×10^6 mononuclear cells was placed into a 24-well plate (Day 1). […] On Day 3, the medium containing cells was collected from the plate, centrifuged, and the supernatant was removed. Then, 2 mL of fresh PTA-containing medium according to Example 1 was added to the cells, and 1 mL of the medium was placed into two wells of a 24-well plate.
On Day 6, the medium containing cells was collected from the plate, centrifuged, and the supernatant was removed. Then, the PTA-containing medium according to Example 1 was added to the cells, and a medium containing 2×10^4 mononuclear cells was placed into a 96-well plate. KLF4, OCT3/4, SOX2, and c-MYC were introduced into the cells using MSRV (Tokiwa Bio). […]
Additionally, genomic DNA was extracted from the iPS cells, and the presence of the recombined Vγ9 gene was analyzed by PCR and electrophoresis. […]

γδ T cell receptor (TCR) = assay: Stimulation of iPS-derived T cell progenitors through the γδ T cell receptor, flow cytometry (Example 5); assay type: cell-based, human; settings: day 35; HMBPP 0.01 μg/mL to 1 μg/mL or zoledronic acid 5 μmol/L; no marker expression without stimulants; FIG. 11
Experimental: αMEM medium supplemented with a final concentration of 20% FBS and 1% penicillin/streptomycin was prepared as an OP9 cell culture medium.
OP9 cell culture medium supplemented with a final concentration of 100 mmol/L vitamin C, 10 ng/ML IL-7, 10 μg/mL FLT3 ligand, and 10 μg/mL stem cell factor (SCF) was prepared as a differentiation induction medium.
A dish on which OP9 cells were cultured was prepared as the feeder cells. The OP9 cells were cultured in the OP9 medium. Multiple cell clusters of iPS cells were seeded onto the feeder cells, and stem cell medium containing 10 μmol/L Y27632 was added. The cells were cultured for two days. On the second day, the medium was replaced with the OP9 medium supplemented with vitamin C, and the cells were cultured for an additional 12 days. On days 5, 9, and 13, half of the medium was removed from the dish and replaced with fresh OP9 medium supplemented with vitamin C.
During the 14-day culture, the differentiation of iPS cells into hematopoietic progenitor cells was observed. The cells were confirmed to be positive for CD34 and CD43, which are markers of hematopoietic cells. […]
It was confirmed that CD3 and γδ TCR (Vγ9) were expressed on the surface of the cells. […] In the negative control, where no stimulants were added, no marker expression was detected.

| Structure (SMILES) | presence of the recombined Vγ9 gene in the iPS cells by PCR and electrophoresis ([1]; FIG. 3) | colonies of iPS cells on Day 14 ([1]; KLF4, OCT3/4, SOX2, c-MYC introduced using MSRV, MOI 5) | CD3 and γδ TCR (Vγ9) expression on the surface of the cells (γδ T cell receptor (TCR)) |
| --- | --- | --- | --- |
| CC(C)(C)C(=O)OCOP(=O)(OCOC(=O)C(C)(C)C)C(CNc1nccs1)P(=O)(OCOC(=O)C(C)(C)C)OCOC(=O)C(C)(C)C [PTA, tetrakis-pivaloyloxymethyl-2-(thiazol-2-ylamino) ethylidene-1,1-bisphosphonate] | confirmed to possess a recombined Vγ9 gene with a JP gene | multiple colonies |  |
| C/C(=C\COP(=O)(O)OP(=O)(O)O)CO [HMBPP, (E)-4-hydroxy-3-methyl-but-2-enyl pyrophosphate] |  |  | expressed |
